Values of other authors as cited in patent US6995149B1, “Contraceptive process and kit for female mammals, comprising a combination of gestagen and oestrogen” (Schering AG, priority 1995, dated 2006).

Experiments:
women = settings: daily dose of 70 to 80 μg, pure gestagen preparation; in almost all women
[1] = very small doses; ovulation is not always inhibited

Structure (SMILES)	inhibition of ovulation (women)	contraceptive protection [1]
C#C[C@]1(O)CC[C@H]2[C@@H]3CCC4=CCCC[C@@H]4[C@H]3C(=C)C[C@@]21CC [desogestrel]	In almost all women, these dosages cause inhibition of ovulation	–
C#C[C@]1(O)CC[C@H]2[C@@H]3CCC4=CC(=O)CC[C@@H]4[C@H]3C(=C)C[C@@]21CC [3-ketodesogestrel]	In almost all women, these dosages cause inhibition of ovulation	–
CC(=O)O[C@]1(C(C)=O)CC[C@H]2[C@@H]3C=C(Cl)C4=CC(=O)CC[C@]4(C)[C@H]3CC[C@@]21C [chloromadinone acetate]	–	afforded contraceptive protection
